# Experimental data from patent US6423702B1, “PROCESS FOR THE HYDROXYLATION OF AN ACYCLIC OR CYCLIC METHYLENE RADICAL IN THE ALLYLIC POSITION, PHARMACEUTICAL COMPOSITION CONTAINING HYDROXYCHOLESTEROL DERIVATIVES AND UTILIZATION OF SUCH COMPOSITIONS FOR THE PREPARATION OF DRUGS” (priority 1991, dated 2002).
# Experiments:
# [1] = test system: ascitic tumors, Krebs-II transplantable carcinoma; settings: injected intraperitoneally into mice carrying ascitic tumors; cited from earlier work
# [2] = test system: reactional gliosis (reactive astrocytes); assay: Reactional gliosis after electrolytic lesion of the striatum (brain), GFAP detection; format: in vivo, rat; settings: rats aged 6 days; 2 μl liposomes with 20 μg PC and 2 μg sterol or oxysterol injected into the site of lesion
# Description: (§1) PC and steroidal derivatives are dissolved in CHCL3/methanol [sic] (2/1 v/v), the solvent evaporated and 1 ml of KCL [sic] (0.15 M) added. The suspension is subjected to ultrasound in an ice bath (5×1 min with an interval of 30 sec, amplitude 18 μm), centrifuged 13,000 g for 20 min, the supernatant withdrawn and concentrated 5 times under nitrogen. BRAIN
# Rats aged 6 days are anesthetized with an intraperitoneal injection of imalgene 500 (2 mg/10 g) and valium (0.05 ml/10 g) and then placed in a stereotaxic apparatus in order to be subjected to an electrolytic lesion at the level of the striatum. For this, a dental probe, insulated except at the point, is moved down to the level of the striatum according to the stereotaxic coordinates with respect to the lambda. At this level, a current of 2 mA is applied for 10 secs;
# 2 μl of a suspension of liposomes containing 20 μg of PC and 2 μg of various sterols or oxysterols are injected into the site of lesion.
# (§2) GFAP, specific structural labeler of astrocytes, is detected on paraffin sections by the antibody/antiantibody system to GFAP coupled to the peroxidase.
# [3] = test system: subcutaneous glioblastomas (C6 cells); assay: Subcutaneous tumors induced by inoculating with C6 cells, intratumoral liposome treatment; format: in vivo, rat; settings: 50 μl liposomes with 1 mg PC and 100 μg steroid injected into the tumors; photographed 48 hours afterwards
# Description: The C6 cells (passage 55-57) are injected subcutaneously at the shoulders at a charge of 10^6 cells/200 μl of […] in rats (26 g) aged 3 weeks according to Ledig et al., (Revue de l'Alcoolisme, 1986, 31, 1-11); when the tumors develop (2 weeks after inoculating with the C6 cells), 50 μl of a suspension of liposomes containing 1 mg of PC and 100 μg of cholesteryl oleate or 7β-OH-cholesteryl oleate are injected into the tumors. The animals are photographed 48 hours afterwards.
# [4] = test system: glioblastomas in the rat cortex (C6 cells); assay: Glioblastomas induced in the brain with C6 cells, liposome treatment at the tumor site; format: in vivo
# Description: The “in vivo” model proposed by Galli et al., (J. Neurooncology, 7, 299-304, 1989) has been adopted with a few modifications in the number of C6-type cells injected and in the age of the rats. Rats (Wistar male) aged 6 days are anesthetized and placed in a stereotaxic apparatus, the skin of the cranium is opened and the skull pierced at appropriate coordinates (4.5 AP, 3.0 ML, 2.0 mm DV with respect to the lambda, set 0) using a dental drill; 200×10^3 C6 in […] of PBS are then injected over 4 minutes and then the skin sutured. 72 hours later, the rats are operated on again and treated with liposomes containing the 7β-hydroxycholesteryl 3-esters. […]
# The rats are sacrificed 8 days after the treatment by […] injection of pentobarbital, perfused with formalin (4%) and the withdrawn brain is post-fixed in formalin (4%) and then in isobutanol and included in paraffin. Sections with a thickness of 10 μm are prepared using a section cutter and, after removing paraffin in toluene, the glioblastomas are detected by staining with Cresyl Violet (0.1% in 0.1 M […] and 0.1 M sodium acetate) and subjected to an image analyzer (IBAS, KONTRON, SAMBA ALCATEL). […]
# Quantitative analysis of the lesions thus observed requires the acquisition of images with sequences of echoes of spin having several echoes and recovery times. […]
# [5] = test system: secondary reactional gliosis (reactive astrocytes); assay: Reactional gliosis after complete section of the spinal cord at T8, GFAP detection; format: in vivo, rat; settings: rats 250 g; 5 μl liposomes with 500 μg PC and 50 μg ester injected 0.5 mm downstream of the section
# Description: as §1
# After complete section of the spinal cord at the T8 level in rats weighing 250 g (Sprague, Dawley, EFFA, Credo), 5 μl of a suspension of liposomes containing 500 μg of PC and 50 μg of esters of 7β-OH-CH (C18:0 or C18:1) are injected at 0.5 mm downstream of the section.
# as §2
# [6] = test system: HTC cells (rat liver tumoral cells); settings: cited from earlier work
# [7] = test system: cultured heart cells from newborn rats; settings: cited from earlier work
# [8] = test system: rat liver epithelial cells; settings: cited from earlier work
# transformed astrocytes = settings: cited from earlier work
# [9] = test system: hepatocytes from newborn rats; settings: cited from earlier work
# [10] = test system: lymphoma (mouse RDM4 and YAC-1); settings: mouse RDM4 and YAC-1 lymphoma; cited from earlier work
# [11] = test system: rat fibroblasts originating from the heart; settings: cited from earlier work
# [12] = test system: tumors induced by 7,12-di-methylbenz(α)anthracene; settings: female Sprague-Dawley rats; cited from earlier work
smiles,measurement,setting,value
"CC(C)CCC[C@@H](C)[C@H]1CC[C@H]2[C@@H]3[C@@H](OC(=O)CCC(=O)O)C=C4C[C@@H](OC(=O)CCC(=O)O)CC[C@]4(C)[C@H]3CC[C@]12C [7β-hydroxycholesterol 3,7-bis(hemisuccinate)]",antitumoral activity,[1],antitumoral activity
"CC(C)CCC[C@@H](C)[C@H]1CC[C@H]2[C@@H]3CC=C4C[C@@H](O)CC[C@]4(C)[C@H]3CC[C@]12C [CH, cholesterol]",reactional gliosis in the CNS,[2],ineffective
"CCCCCCCCCCCCCCCC(=O)O[C@H]1CC[C@@]2(C)C(=CC[C@H]3[C@@H]4CC[C@H]([C@H](C)CCCC(C)C)[C@@]4(C)CC[C@@H]32)C1 [CH (C16:0), cholesteryl palmitate]",reactional gliosis in the CNS,[2],ineffective
"CCCCCCCC/C=C\CCCCCCCC(=O)O[C@H]1CC[C@@]2(C)C(=CC[C@H]3[C@@H]4CC[C@H]([C@H](C)CCCC(C)C)[C@@]4(C)CC[C@@H]32)C1 [CH (C18:1), cholesteryl oleate]",effect on the subcutaneous tumor,[3],practically no effect
"CCCCCCCC/C=C\CCCCCCCC(=O)O[C@H]1CC[C@@]2(C)C(=C[C@H](O)[C@H]3[C@@H]4CC[C@H]([C@H](C)CCCC(C)C)[C@@]4(C)CC[C@@H]32)C1 [7β-OH-CH (C18:1), 7β-hydroxycholesteryl 3-oleate]",size of the tumors (Cresyl Violet staining),"[4]; 40 μg in PC/GM1 liposomes injected 72 hours after C6 inoculation, sacrifice 8 days after treatment",significant reduction
same,monitoring of the tumor over time by NMR imagery,"[4]; same glioblastoma induced in the cortex of a rat, during treatment",regression
same,effect on the subcutaneous tumor,[3],significant regression
same,reactional gliosis in the CNS,[2],high attenuation
same,secondary reactional gliosis at the spinal cord lesion site,[5],reduces
CC(C)CCC[C@@H](C)[C@H]1CC[C@H]2[C@@H]3[C@@H](O)C=C4C[C@@H](O)CC[C@]4(C)[C@H]3CC[C@]12C [7β-hydroxycholesterol],cytotoxic activity against cultured cells,[6],cytotoxic activity
same,effect on cells with weaker potential for division,[7],not detrimentally affected
same,cytotoxic activity against cultured cells,[8],cytotoxic activity
same,metabolism to esters of fatty acids,transformed astrocytes,metabolized
same,effect on cells with weaker potential for division,[9],not detrimentally affected
same,cytotoxic activity against cultured cells,[10],cytotoxic activity
same,cytotoxic activity against cultured cells,[11],cytotoxic activity
"CC(C)CC[C@@H](O)[C@@H](C)[C@H]1CC[C@H]2[C@@H]3[C@@H](O)C=C4C[C@@H](O)CC[C@]4(C)[C@H]3CC[C@]12C [(22 R)-cholest-5-ene-3β,7β22-triol]",development of tumors,[12],effectively reduced
